Data taken from article PMC9851200, “Multiparameter phenotypic screening for endogenous TFEB and TFE3 translocation identifies novel chemical series modulating lysosome function” (Autophagy, 2022).

Key:
PRKD2 [1] = biological target: T1, PRKD2 (Homo sapiens, UniProt Q9BZL6); experiment: KiNativ in-cell kinase binding, PRKD2; parameters: endogenous in cells; host or cells: SH-SY5Y
T1 sequence (Q9BZL6 1-878): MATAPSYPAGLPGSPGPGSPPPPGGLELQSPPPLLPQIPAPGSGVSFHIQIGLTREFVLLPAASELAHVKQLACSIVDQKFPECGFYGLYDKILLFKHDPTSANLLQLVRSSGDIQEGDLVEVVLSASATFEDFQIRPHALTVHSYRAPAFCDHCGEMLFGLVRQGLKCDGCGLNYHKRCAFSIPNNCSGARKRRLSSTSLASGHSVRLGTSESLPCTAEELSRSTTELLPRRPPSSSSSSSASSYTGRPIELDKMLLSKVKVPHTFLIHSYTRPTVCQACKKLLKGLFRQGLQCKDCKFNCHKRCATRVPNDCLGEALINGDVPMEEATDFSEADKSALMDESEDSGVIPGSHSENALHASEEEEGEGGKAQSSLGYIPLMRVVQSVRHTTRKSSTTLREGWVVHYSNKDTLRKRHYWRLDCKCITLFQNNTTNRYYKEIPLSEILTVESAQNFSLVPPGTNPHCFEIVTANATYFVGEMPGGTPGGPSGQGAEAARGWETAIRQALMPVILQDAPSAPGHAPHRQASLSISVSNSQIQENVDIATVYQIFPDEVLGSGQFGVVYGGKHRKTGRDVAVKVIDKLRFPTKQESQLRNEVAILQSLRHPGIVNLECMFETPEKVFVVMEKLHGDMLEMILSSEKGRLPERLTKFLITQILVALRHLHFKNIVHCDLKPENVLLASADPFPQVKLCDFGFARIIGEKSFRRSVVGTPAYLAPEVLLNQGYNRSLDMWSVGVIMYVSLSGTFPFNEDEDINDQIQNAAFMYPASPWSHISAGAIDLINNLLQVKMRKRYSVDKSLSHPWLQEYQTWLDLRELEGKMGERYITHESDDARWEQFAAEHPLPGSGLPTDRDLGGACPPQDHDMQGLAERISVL
Text: As KINOMEscan is an in vitro assay, and as different cell types have variable kinase expression profiles we sought to determine the kinase binding profile in our SH-SY5Y TFEB-relocalization cell model. […] Bound kinases were pulled down and analyzed by mass spectrometry to determine the in situ kinase binding profile for each compound.

TFE3 = TFE3 nuclear translocation in iPSC-derived i3Neurons; format: cell-based, human; conditions: day 10
Description: hiPSCs were maintained under feeder-free conditions in a 37°C, 5% CO2 tissue culture incubator on tissue culture treated dishes coated with growth factor-reduced Matrigel (Corning, 354,277) and fed every 1–2 days with Essential 8 medium (Life Technologies, A1517001), as needed. Accutase ([…] Technologies, 07920) was used to enzymatically dissociate hiPSCs into single cells, and 0.5 mM EDTA was used for routine dissociation to maintain colony growth. To promote cell survival during passaging, cells were passaged with the ROCK/p160-Rho-associated coiled coil kinase inhibitor Y-27632 ([…]; Selleckchem, S1049). hiPSC-derived i^3Neurons were induced and differentiated according to Fernandopulle et al. and replated on high-content 96-well dishes (PerkinElmer, CellCarrierUltra-96) by day 3. […]
After the required compound incubation, media was removed from the wells and the cells were fixed in 4% paraformaldehyde (PFA; ThermoFisher Scientific/Pierce, 28,908) for 20 min. […] The Harmony image analysis software (Perkin Elmer) was used to identify nuclei TFEB or TFE3 positive nuclei, expressed as a percentage of total cell number (See Figure S2 and S3 for analysis protocols). Mean values and standard deviation of DMSO control wells on the plate were calculated. […]

PRKD2 [2] = biological target: T1, PRKD2; experiment: KINOMEscan PRKD2; format: binding; conditions: NEW KINOMEscan
JAK1(JH2) = biological target: T2, JAK1(JH2) (Homo sapiens, UniProt P23458); experiment: KINOMEscan JAK1(JH2); format: binding; conditions: NEW KINOMEscan
T2 construct: JAK1(JH2)

MAPK9/JNK2 = MAPK9/JNK2 (Homo sapiens, UniProt P45984); format: binding
STK10/LOK = STK10/LOK (Homo sapiens, UniProt O94804); format: binding
STK10/LOK, sequence (O94804 whole entry): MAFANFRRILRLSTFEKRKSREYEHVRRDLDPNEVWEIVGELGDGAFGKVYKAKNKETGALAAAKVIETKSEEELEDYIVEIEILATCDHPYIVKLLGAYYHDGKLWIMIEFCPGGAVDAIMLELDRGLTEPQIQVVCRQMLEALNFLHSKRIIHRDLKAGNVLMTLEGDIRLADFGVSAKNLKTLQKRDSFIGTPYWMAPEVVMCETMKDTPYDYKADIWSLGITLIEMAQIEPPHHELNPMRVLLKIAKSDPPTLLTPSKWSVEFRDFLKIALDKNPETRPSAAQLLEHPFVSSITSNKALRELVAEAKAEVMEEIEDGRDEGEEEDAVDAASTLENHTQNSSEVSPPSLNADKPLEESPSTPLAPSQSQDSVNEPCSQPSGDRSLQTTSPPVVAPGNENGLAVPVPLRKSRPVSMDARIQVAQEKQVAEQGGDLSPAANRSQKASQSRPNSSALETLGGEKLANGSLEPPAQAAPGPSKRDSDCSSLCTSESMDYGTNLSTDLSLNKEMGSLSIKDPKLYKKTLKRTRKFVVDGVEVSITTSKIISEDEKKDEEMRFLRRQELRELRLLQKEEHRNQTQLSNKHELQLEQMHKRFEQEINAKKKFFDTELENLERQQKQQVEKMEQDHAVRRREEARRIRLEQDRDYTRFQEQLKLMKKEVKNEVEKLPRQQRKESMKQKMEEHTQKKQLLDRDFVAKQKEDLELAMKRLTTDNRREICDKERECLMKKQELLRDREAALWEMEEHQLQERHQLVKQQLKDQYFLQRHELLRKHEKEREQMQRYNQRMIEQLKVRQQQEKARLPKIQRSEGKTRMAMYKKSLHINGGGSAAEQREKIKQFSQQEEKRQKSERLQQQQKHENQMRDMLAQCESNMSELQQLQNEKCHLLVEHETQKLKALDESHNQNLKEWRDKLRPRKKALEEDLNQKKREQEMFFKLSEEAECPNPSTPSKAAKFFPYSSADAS

T2 sequence (P23458 583-855 limits assumed): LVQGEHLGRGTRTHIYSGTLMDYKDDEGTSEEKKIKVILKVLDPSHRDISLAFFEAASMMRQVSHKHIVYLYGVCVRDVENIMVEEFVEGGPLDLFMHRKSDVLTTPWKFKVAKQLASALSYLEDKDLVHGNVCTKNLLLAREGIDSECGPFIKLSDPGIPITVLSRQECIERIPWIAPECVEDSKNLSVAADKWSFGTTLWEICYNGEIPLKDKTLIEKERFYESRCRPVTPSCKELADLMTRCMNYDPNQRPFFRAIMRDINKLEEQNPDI
MAPK9/JNK2, sequence (P45984 whole entry): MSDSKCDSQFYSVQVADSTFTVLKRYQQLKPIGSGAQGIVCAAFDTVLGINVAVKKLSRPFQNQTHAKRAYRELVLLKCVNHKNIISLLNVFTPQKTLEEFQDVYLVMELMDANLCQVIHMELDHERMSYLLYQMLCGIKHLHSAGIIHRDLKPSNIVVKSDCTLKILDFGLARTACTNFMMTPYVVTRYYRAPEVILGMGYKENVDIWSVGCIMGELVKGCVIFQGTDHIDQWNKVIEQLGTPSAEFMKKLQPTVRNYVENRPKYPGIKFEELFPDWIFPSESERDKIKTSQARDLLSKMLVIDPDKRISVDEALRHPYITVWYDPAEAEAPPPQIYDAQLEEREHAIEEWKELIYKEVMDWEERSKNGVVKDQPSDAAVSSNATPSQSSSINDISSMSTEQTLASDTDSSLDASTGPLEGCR

Cc1cccc(-c2nc(Nc3ccc4ncsc4c3)c3ccccc3n2)n1 [NK140]
inhibition at 2 µM (PRKD2 [1]; 2µM, SH-SY5Y cells, Labeling Site Lys1, […]): 51.7% | KiNativ binding of PRKD2 (in words) (PRKD2 [1]; SH-SY5Y cells treated 2 h): bound | Nuclear translocation of TFE3 in i3Neurons (in words) (TFE3): trend toward upregulation of TFE3 translocation

Cc1cccc(-c2nc(Nc3ccc4nn(C)cc4c3)c3ccccc3n2)n1 [NK167]
KINOMEscan PRKD2 (PRKD2 [2]): 39 | KINOMEscan JAK1(JH2domain-pseudokinase) (JAK1(JH2)): 36

Cc1cccc(-c2nc(N(C)c3ccc4ncsc4c3)c3ccccc3n2)n1 [NK-161]
KINOMEscan PRKD2 (PRKD2 [2]): 63 | KINOMEscan MAPK9/JNK2 (MAPK9/JNK2): 7 | KINOMEscan STK10/LOK (STK10/LOK): 19 | KINOMEscan JAK1(JH2domain-pseudokinase) (JAK1(JH2)): 41
